Results on one compound are retold here after paper doi:10.1101/843607v1 (biorxiv, 2019).

The target of the test is T1, Recombinant Mouse Matriptase (Mus musculus, UniProt P56677).
T1 sequence (P56677 615-855 limits assumed): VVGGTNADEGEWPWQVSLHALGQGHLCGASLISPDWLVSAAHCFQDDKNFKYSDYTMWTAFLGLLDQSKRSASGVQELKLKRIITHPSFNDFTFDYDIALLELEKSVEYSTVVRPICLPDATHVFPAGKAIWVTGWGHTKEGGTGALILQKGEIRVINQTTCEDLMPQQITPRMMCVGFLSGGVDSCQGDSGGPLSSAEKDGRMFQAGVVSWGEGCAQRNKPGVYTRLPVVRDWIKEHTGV
In words: fluorogenic AMC release from Boc-QAC-AMC. It is filed as biochemical.

For `N=C(N)c1ccc2cc(OC(=O)c3ccc(N=C(N)N)cc3)ccc2c1` [Nafamostat mesilate], the IC50 (usually the concentration needed to halve the response being measured) came to 860 pM.
